Test results reported in PMC6211260 (Journal of Enzyme Inhibition and Medicinal Chemistry, 2018).
“And” between values parts separate entries of the source, which are not always exact repeats. Equal values may be shown once.

Legend:
[1] = test system: A498 renal cancer cell line; experiment: NCI five-dose testing; format: cell-based; details: A498
Method: (§1) Screening against the cancer cell lines was carried out at the National Cancer Institute (NCI, Bethesda, Maryland, USA) applying the standard protocol of the NCI[22].

[2] = test system: HOP-92 non-small cell lung cancer cell line; experiment: NCI five-dose testing; format: cell-based; details: HOP-92
Method: as §1

[3] = test system: HT-29 colon cancer cell line; experiment: NCI five-dose testing; format: cell-based; details: HT-29
Method: as §1

[4] = test system: K-562 leukaemia cell line; experiment: NCI five-dose testing; format: cell-based; details: K-562
Method: as §1

[5] = test system: MDA-MB-468 breast cancer cell line; experiment: NCI five-dose testing; format: cell-based; details: MDA-MB-468
Method: as §1

[6] = test system: OVCAR-4 ovarian cancer cell line; experiment: NCI five-dose testing; format: cell-based; details: OVCAR-4
Method: as §1

[7] = test system: PC-3 prostate cancer cell line; experiment: NCI five-dose testing; format: cell-based; details: PC-3
Method: as §1

[8] = test system: SK-MEL-5 melanoma cell line; experiment: NCI five-dose testing; format: cell-based; details: SK-MEL-5
Method: as §1

[9] = test system: U251 CNS cancer cell line; experiment: NCI five-dose testing; format: cell-based; details: U251
Method: as §1

ABL1 (T315I) = biological target: T1, ABL1 (T315I) (Homo sapiens, UniProt P00519, T315I); experiment: In vitro kinase screening (Kinase HotSpot); format: biochemical; details: single dose of 10 µM
T1 construct: purchased Reaction Biology Corp
Description: (§2) To investigate the biological target of compound, Reaction Biology Corp. Kinase HotSpotSM service was used adopting standard assay protocol.

BRAF = biological target: T2, BRAF (Homo sapiens, UniProt P15056); experiment: In vitro kinase screening (Kinase HotSpot); format: biochemical
T2 construct: purchased Reaction Biology Corp
T2 sequence (P15056 whole entry): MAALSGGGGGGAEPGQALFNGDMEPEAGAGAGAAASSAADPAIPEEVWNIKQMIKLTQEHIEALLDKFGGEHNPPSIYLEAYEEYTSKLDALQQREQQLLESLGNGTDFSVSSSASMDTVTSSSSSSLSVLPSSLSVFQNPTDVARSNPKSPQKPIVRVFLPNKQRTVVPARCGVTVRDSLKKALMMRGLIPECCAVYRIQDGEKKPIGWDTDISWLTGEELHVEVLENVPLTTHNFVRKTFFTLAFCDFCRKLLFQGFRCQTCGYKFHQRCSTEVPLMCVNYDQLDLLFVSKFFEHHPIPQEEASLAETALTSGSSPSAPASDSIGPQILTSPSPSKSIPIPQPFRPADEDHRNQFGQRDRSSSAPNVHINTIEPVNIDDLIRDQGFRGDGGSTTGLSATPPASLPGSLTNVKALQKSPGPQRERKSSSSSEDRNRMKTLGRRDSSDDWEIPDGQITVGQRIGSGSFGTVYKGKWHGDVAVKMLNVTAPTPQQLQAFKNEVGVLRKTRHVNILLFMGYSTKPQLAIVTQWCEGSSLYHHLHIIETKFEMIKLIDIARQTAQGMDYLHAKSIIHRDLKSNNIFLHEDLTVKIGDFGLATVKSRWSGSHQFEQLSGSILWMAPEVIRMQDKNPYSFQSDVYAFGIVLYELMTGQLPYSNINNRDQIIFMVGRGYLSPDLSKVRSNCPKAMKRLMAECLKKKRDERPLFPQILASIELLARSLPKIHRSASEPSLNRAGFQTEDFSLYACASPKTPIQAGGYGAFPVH
Description: as §2

BRAF (V600E) = biological target: T3, BRAF (V600E) (Homo sapiens, UniProt P15056, V600E); experiment: In vitro kinase screening (Kinase HotSpot); format: biochemical
T3 construct: purchased Reaction Biology Corp
T3 sequence (P15056 whole entry V600E): as the sequence (P15056 whole entry) above, with V600E counted along it
Description: as §2

EGFR = biological target: T4, EGFR (Homo sapiens, UniProt P00533); experiment: In vitro kinase screening (Kinase HotSpot); format: biochemical; details: single dose of 10 µM
T4 construct: purchased Reaction Biology Corp
Description: as §2

ERK1 = biological target: T5, ERK1 (Homo sapiens, UniProt P27361); experiment: In vitro kinase screening (Kinase HotSpot); format: biochemical; details: single dose of 10 µM
T5 construct: purchased Reaction Biology Corp
T5 sequence (P27361 whole entry): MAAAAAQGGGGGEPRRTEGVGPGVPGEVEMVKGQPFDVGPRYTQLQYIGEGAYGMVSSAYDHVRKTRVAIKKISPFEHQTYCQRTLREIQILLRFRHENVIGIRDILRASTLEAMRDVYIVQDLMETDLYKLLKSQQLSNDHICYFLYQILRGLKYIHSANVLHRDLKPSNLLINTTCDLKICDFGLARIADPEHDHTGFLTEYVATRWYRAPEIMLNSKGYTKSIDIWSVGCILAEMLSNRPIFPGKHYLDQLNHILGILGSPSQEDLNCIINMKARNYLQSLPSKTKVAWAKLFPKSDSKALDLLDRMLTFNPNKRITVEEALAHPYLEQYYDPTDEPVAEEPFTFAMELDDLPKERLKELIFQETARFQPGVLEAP
Description: as §2

ERK2/MAPK1 = biological target: T6, ERK2/MAPK1 (Homo sapiens, UniProt P28482); experiment: In vitro kinase screening (Kinase HotSpot); format: biochemical; details: single dose of 10 µM
T6 construct: purchased Reaction Biology Corp
Description: as §2

FMS = biological target: T7, FMS (Homo sapiens, UniProt P07333); experiment: In vitro kinase screening (Kinase HotSpot); format: biochemical; details: single dose of 10 µM
T7 construct: purchased Reaction Biology Corp
T7 sequence (P07333 20-972): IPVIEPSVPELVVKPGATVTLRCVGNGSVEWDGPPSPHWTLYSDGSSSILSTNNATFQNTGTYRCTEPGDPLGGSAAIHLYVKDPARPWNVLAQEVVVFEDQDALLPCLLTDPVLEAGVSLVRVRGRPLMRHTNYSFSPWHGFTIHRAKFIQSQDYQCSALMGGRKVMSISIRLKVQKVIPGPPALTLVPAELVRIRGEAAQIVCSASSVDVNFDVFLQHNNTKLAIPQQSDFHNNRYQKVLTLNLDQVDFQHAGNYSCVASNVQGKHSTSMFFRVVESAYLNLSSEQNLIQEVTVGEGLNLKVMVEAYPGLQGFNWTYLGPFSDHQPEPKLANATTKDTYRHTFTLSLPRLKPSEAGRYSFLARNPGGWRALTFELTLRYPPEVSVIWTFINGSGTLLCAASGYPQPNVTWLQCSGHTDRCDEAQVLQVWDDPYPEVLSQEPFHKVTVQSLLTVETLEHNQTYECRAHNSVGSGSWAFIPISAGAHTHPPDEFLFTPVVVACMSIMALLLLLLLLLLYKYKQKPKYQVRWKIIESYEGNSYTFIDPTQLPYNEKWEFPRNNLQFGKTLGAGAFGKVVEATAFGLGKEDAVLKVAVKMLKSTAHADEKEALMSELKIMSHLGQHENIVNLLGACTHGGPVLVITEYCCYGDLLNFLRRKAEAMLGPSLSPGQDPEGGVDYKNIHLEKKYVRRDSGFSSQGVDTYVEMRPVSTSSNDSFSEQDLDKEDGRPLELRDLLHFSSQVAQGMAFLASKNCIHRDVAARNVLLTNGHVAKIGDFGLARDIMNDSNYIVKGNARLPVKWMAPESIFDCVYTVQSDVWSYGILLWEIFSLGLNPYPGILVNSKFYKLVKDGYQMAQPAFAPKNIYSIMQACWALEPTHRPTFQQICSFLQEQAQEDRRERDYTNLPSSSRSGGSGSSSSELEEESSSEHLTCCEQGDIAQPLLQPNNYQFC
Description: as §2

GSK3b = biological target: T8, GSK3b (Homo sapiens, UniProt P49841); experiment: In vitro kinase screening (Kinase HotSpot); format: biochemical; details: single dose of 10 µM, 10 µM
T8 construct: purchased Reaction Biology Corp
Description: as §2

IKKb/IKBKB = biological target: T9, IKKb/IKBKB (Homo sapiens, UniProt O14920); experiment: In vitro kinase screening (Kinase HotSpot); format: biochemical; details: single dose of 10 µM
T9 construct: purchased Reaction Biology Corp
T9 sequence (O14920 1-756): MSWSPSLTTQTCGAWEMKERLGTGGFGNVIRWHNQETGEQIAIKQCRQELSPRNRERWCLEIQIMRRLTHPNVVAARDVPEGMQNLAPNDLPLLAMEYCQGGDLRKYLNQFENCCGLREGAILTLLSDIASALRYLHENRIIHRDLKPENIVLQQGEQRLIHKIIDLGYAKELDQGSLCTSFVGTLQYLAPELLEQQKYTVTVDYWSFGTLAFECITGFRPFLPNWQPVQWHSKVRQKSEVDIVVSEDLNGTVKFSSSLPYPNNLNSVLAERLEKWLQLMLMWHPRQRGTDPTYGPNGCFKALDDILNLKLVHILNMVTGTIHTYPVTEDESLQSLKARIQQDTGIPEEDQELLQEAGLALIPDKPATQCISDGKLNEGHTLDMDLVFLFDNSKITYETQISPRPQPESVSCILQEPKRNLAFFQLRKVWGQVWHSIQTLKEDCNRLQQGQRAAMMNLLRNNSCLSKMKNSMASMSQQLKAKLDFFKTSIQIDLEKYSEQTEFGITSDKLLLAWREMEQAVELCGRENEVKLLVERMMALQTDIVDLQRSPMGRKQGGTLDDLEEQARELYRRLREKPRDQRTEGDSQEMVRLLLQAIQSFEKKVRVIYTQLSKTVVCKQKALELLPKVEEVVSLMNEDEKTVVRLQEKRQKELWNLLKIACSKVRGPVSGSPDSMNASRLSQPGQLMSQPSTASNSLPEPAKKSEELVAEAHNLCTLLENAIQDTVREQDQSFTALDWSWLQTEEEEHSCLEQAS
Description: as §2

JNK1 = biological target: T10, JNK1 (Homo sapiens, UniProt P45983); experiment: In vitro kinase screening (Kinase HotSpot); format: biochemical
T10 construct: purchased Reaction Biology Corp
T10 sequence (P45983 whole entry): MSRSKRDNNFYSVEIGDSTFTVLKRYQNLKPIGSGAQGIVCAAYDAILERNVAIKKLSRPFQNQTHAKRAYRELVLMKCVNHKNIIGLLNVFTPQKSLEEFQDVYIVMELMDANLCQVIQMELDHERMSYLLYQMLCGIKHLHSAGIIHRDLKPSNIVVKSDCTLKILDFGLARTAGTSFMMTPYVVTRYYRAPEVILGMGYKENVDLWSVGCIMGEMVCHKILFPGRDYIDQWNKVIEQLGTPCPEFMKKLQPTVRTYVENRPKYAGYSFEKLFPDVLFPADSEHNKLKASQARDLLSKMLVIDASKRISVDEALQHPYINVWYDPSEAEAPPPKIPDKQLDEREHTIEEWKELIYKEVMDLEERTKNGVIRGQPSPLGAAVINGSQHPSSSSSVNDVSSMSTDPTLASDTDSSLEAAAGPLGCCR
Description: as §2

JNK2 = biological target: T11, JNK2 (Homo sapiens, UniProt P45984); experiment: In vitro kinase screening (Kinase HotSpot); format: biochemical
T11 construct: purchased Reaction Biology Corp
T11 sequence (P45984 whole entry): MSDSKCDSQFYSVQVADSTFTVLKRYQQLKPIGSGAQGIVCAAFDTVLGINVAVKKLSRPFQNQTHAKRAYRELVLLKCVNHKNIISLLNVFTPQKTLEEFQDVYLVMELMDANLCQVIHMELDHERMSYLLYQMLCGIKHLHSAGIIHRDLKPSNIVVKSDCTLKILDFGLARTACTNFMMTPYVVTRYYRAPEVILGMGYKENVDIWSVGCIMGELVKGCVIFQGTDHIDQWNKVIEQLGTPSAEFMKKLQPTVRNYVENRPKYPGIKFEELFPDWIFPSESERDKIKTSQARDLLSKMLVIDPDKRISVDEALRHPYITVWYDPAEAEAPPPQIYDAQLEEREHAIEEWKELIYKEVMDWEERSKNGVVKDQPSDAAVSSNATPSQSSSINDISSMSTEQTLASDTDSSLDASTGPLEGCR
Description: as §2

JNK3 = biological target: T12, JNK3 (Homo sapiens, UniProt P53779); experiment: In vitro kinase screening (Kinase HotSpot); format: biochemical; details: single dose of 10 µM
T12 construct: purchased Reaction Biology Corp
T12 sequence (P53779 whole entry): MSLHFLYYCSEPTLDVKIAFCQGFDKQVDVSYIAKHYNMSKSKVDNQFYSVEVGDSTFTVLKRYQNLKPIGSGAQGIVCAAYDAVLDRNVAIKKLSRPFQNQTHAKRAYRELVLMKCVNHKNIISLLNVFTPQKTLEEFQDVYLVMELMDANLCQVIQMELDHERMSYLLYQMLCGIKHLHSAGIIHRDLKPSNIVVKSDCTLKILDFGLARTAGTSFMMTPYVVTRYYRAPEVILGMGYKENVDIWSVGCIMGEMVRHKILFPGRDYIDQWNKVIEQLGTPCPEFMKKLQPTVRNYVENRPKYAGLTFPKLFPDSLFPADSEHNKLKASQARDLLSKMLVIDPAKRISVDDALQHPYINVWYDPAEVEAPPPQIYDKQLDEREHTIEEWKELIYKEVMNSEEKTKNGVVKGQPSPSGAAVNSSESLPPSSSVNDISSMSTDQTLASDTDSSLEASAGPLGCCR
Description: as §2

MEK1 = biological target: T13, MEK1 (Homo sapiens, UniProt Q02750); experiment: In vitro kinase screening (Kinase HotSpot); format: biochemical; details: single dose of 10 µM
T13 construct: purchased Reaction Biology Corp
Description: as §2

MEK2 = biological target: T14, MEK2 (Homo sapiens, UniProt P36507); experiment: In vitro kinase screening (Kinase HotSpot); format: biochemical; details: single dose of 10 µM
T14 construct: purchased Reaction Biology Corp
T14 sequence (P36507 whole entry): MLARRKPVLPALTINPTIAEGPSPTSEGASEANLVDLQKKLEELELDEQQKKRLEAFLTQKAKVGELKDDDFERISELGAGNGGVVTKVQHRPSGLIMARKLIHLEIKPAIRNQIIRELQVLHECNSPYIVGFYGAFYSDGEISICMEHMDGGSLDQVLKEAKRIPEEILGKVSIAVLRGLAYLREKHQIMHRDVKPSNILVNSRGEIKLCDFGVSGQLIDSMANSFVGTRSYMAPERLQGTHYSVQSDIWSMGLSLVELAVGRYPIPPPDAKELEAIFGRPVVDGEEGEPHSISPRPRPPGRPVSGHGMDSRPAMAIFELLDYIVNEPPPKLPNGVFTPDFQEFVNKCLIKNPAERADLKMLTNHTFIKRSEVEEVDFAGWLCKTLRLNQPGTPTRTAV
Description: as §2

MKK6 = biological target: T15, MKK6 (Homo sapiens, UniProt P52564); experiment: In vitro kinase screening (Kinase HotSpot); format: biochemical; details: single dose of 10 µM
T15 construct: purchased Reaction Biology Corp
Description: as §2

P38a/MAPK14 = biological target: T16, P38a/MAPK14 (Homo sapiens, UniProt Q16539); experiment: In vitro kinase screening (Kinase HotSpot); format: biochemical
T16 construct: purchased Reaction Biology Corp
T16 sequence (Q16539 whole entry): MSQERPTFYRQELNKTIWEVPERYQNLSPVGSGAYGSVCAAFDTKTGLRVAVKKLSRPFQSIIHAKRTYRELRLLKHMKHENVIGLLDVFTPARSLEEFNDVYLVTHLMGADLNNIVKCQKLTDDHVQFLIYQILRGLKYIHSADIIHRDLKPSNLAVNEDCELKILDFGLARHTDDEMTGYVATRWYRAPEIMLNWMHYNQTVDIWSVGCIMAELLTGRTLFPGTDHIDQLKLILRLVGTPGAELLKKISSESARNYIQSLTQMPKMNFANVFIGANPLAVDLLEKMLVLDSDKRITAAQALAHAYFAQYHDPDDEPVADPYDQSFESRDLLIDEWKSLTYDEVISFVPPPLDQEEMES
Description: as §2

RAF1 = biological target: T17, RAF1 (Homo sapiens, UniProt P04049); experiment: In vitro kinase screening (Kinase HotSpot); format: biochemical
T17 construct: purchased Reaction Biology Corp
T17 sequence (P04049 whole entry): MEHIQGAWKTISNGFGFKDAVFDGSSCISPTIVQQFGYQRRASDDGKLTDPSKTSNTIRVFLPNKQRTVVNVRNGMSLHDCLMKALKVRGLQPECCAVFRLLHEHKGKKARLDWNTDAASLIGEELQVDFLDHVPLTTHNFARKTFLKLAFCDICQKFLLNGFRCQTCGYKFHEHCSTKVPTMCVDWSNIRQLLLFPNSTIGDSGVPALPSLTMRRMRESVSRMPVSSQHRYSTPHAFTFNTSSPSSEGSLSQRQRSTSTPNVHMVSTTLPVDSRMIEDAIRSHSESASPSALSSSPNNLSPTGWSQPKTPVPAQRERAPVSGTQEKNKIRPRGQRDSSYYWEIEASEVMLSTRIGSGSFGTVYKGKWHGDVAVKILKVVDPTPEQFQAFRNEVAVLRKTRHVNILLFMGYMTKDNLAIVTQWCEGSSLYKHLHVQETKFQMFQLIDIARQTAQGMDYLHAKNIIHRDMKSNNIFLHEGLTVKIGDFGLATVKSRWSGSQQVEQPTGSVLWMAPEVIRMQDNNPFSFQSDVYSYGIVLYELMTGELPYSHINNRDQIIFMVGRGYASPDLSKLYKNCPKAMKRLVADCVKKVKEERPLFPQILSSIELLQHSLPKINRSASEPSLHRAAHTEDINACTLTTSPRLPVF
Description: as §2

ROS/ROS1 = biological target: T18, ROS/ROS1 (Homo sapiens, UniProt P08922); experiment: In vitro kinase screening (Kinase HotSpot); format: biochemical; details: single dose of 10 µM
T18 construct: purchased Reaction Biology Corp
Description: as §2

mTOR/FRAP1 = biological target: T19, mTOR/FRAP1 (Homo sapiens, UniProt P42345); experiment: In vitro kinase screening (Kinase HotSpot); format: biochemical; details: single dose of 10 µM
T19 construct: purchased Reaction Biology Corp
Description: as §2

[10] = read-out: TGI (total growth inhibition concentration)

For `O=S(=O)(NCCCNc1cc(-c2cn(-c3ccccc3)nc2-c2cccc(O)c2)ccn1)c1ccc(Cl)cc1` [Compound 2l, 4-Chloro-N-(3-((4-(3-(3-hydroxyphenyl)-1-phenyl-1H-pyrazol-4-yl)pyridin-2-yl)amino)propyl) benzenesulfonamide], the IC50 [1] was 330 nM, the “LD50 (lethal dose 50)” value [1] was 6.9 µM and the IC (TGI) [1, 10] was 2200 nM. For the same molecule, the IC50 [2] was 1520 nM, the “LD50 (lethal dose 50)” value [2] was 93.2 µM and the IC (TGI) [2, 10] was 4700 nM. The “LD50 (lethal dose 50)” value [3] was 4.7 µM, the IC50 ([3]; read-out: IC50) was 470 nM and the IC (TGI) [3, 10] was 1700 nM. For the same molecule, the IC50 [4] was 430 nM, the “LD50 (lethal dose 50)” value [4] was >100 µM and the IC (TGI) [4, 10] was 2500 nM. For the same molecule, the IC50 [5] was 1160 nM, the “LD50 (lethal dose 50)” value [5] was >100 µM and the IC (TGI) [5, 10] was 4600 nM. For the same molecule, the IC50 [6] was 1670 nM, the “LD50 (lethal dose 50)” value [6] was >100 µM and the IC (TGI) [6, 10] was 5900 nM. For the same molecule, the “LD50 (lethal dose 50)” value [7] was >100 µM, the IC50 ([7]; read-out: IC50) was 1740 nM and the IC (TGI) [7, 10] was 6100 nM. The IC50 [8] was 1230 nM, the “LD50 (lethal dose 50)” value [8] was 5.3 µM and the IC (TGI) [8, 10] was 2500 nM. For the same molecule, the “LD50 (lethal dose 50)” value [9] was 8.8 µM, the IC50 ([9]; read-out: IC50) was 1350 nM and the IC (TGI) [9, 10] was 3400 nM. For the same molecule, the Inhibition % (ABL1 (T315I)) was “–10.98 ± 0.40%”, the IC50 (BRAF) was 4870 ± 70 nM and the Inhibition % (BRAF; single dose of 10 µM) was 72.56 ± 0.27%. For the same molecule, the IC50 (BRAF (V600E); BRAF(V600E)) was 1160 ± 40 nM, the Inhibition % (BRAF (V600E); single dose of 10 µM, BRAF (V599E) in Table 6, BRAF (V600E) in text) was 93.67 ± 0.47% and the Inhibition % (EGFR) was 11.74 ± 4.78%. For the same molecule, the Inhibition % (ERK1) was 13.07 ± 0.93%, the Inhibition % (ERK2/MAPK1) was 22.21 ± 0.41% and the Inhibition % (FMS) was 24.24 ± 1.14%. It also gave an Inhibition % (GSK3b) of 75.45 ± 0.28%, an Inhibition % (IKKb/IKBKB) of −2.94 ± 0.17% and an IC50 (JNK1) of 350 ± 40 nM. For the same molecule, the Inhibition % (JNK1; single dose of 10 µM, 10 µM) was 99.02% and 99.05 ± 0.03%, the IC50 (JNK2) was 360 ± 70 nM and the Inhibition % (JNK2; single dose of 10 µM, 10 µM) was 98.47% and 98.49 ± 0.02%. The Inhibition % (JNK3) was 89.50 ± 0.03%, the Inhibition % (MEK1) was 0.56 ± 1.08% and the Inhibition % (MEK2) was 11.73 ± 1.60%. It also gave an Inhibition % (MKK6) of 16.65 ± 0.11%, an IC50 (P38a/MAPK14; MAPK14) of 1130 ± 90 nM and an Inhibition % (P38a/MAPK14; single dose of 10 µM, P38a/MAPK14) of 86.54 ± 0.61%. For the same molecule, the IC50 (RAF1) was 3520 ± 10 nM, the Inhibition % (ROS/ROS1) was 24.03 ± 0.51% and the Inhibition % (mTOR/FRAP1) was 0.72 ± 0.32%.
